Source: US20070122471A1, “Method of improving suitability for granulation” (Takeda Pharmaceutical Company Limited, priority 2003, published 2007)

Assay: Wettability to binder: contact angle of binder liquid on molded product
Type: physicochemical
Settings: for Contact angle with respect to molded product: immediately after dropping about 10 μL
Description: The bulk molded product of Compound X used in Example 1, and Compound X, lactose and crystalline cellulose in Table 1 (this mixture being referred to as a granulation component) were examined on the effect of the surfactant on the wettability to a binder (10% PVP) solution for the molded product. As a binding liquid, a solution of a binder alone (A), a solution of binder+a 1% polysorbate 80 (B), and a solution of a binder+1% sodium lauryl sulfate (C) were used, and contact angle thereof were measured by using the following method.
About 300 mg of the bulk or the granulation component was weighed, and compression molded using a plain mortar and pestle of 10.0 mmφ by an autograph (manufactured by Shimadzu Co.) under the conditions of a tableting pressure of 10 kN/pestle and a tableting speed of 10 mm/min, thus to obtain a bulk molded product or a molded product of the granulation components. Onto the flat portion of each of the molded products, about 10 μL of the above-described binder liquid was dropped using a Microsyringe (manufactured by ITO SEISAKUSHO CO., LTD.), and the solid and liquid interface immediately after dropping was photographed by a digital microscope (Keyence). After photographing, using an accompanying software, the angle between the liquid surface and the solid surface was measured and referred to as an […].

Contact angle with respect to molded product (binder liquid (A): binder (10% PVP) alone): 56 °
Contact angle with respect to molded product (binder liquid (B): binder (10% PVP) + 1% polysorbate 80): 33 °
Contact angle with respect to molded product (binder liquid (C): binder (10% PVP) + 1% sodium lauryl sulfate): 28 °
Wettability to the binder liquid (surfactant incorporated into the binder liquid): remarkably improved
SMILES: COc1cccc([C@H]2O[C@H](CC(=O)Nc3cccc(CCC(=O)O)c3)C(=O)N(CC(C)(C)CO)c3ccc(Cl)cc32)c1OC [Compound X, 3-[3-[[(3R,5S)-7-chloro-5-(2,3-dimethoxyphenyl)-1-(3-hydroxy-2,2-dimethylpropyl)-2-oxo-1,2,3,5-tetrahydro-4,1-benzoxazepine-3-yl]acetyl]aminophenyl]propionic acid]
